Biological target: CDK2 (human) (UniProt P24941)
Assay: Enzyme Assay
Conditions: for inhibition: concentration not given here

Compound	inhibition	Ki
Nc1nc(NC2CCN(C(=O)CCN3CCCCC3)CC2)sc1C(=O)c1c(F)cccc1F	15%	–
CC(=O)N1CSC[C@H]1C(=O)N1CCC(Nc2nc(N)c(C(=O)c3c(F)cccc3F)s2)CC1	20%	–
Nc1nc(NC2CCN(C(=O)Cc3cccc(F)c3F)CC2)sc1C(=O)c1c(F)cccc1F	57%	–
CCCCc1ccc(C(=O)N2CCC(Nc3nc(N)c(C(=O)c4c(F)cccc4F)s3)CC2)nc1	-45%	–
CS(=O)(=O)c1ccccc1S(=O)(=O)N1CCC(Nc2nc(N)c(C(=O)c3c(F)cccc3F)s2)CC1	-5%	–
Nc1nc(NC2CCN(C(=O)CCCc3cccs3)CC2)sc1C(=O)c1c(F)cccc1F	65%	–
Nc1nc(NC2CCN(S(=O)(=O)c3ccc(O)c(C(=O)O)c3)CC2)sc1C(=O)c1c(F)cccc1F	-16%	–
Nc1nc(NC2CCN(C(=O)[C@H](O)Cc3ccccc3)CC2)sc1C(=O)c1c(F)cccc1F	42%	–
Nc1nc(NC2CCN(C(=O)/C=C/c3ccc4c(c3)CCC4)CC2)sc1C(=O)c1c(F)cccc1F	48%	–
Nc1nc(NC2CCN(C(=O)CCCc3ccccc3)CC2)sc1C(=O)c1c(F)cccc1F	38%	–
Cc1ccc(C(=O)N2CCC(Nc3nc(N)c(C(=O)c4c(F)cccc4F)s3)CC2)cc1	60%	–
CC(=O)Nc1cccc(C(=O)N2CCC(Nc3nc(N)c(C(=O)c4c(F)cccc4F)s3)CC2)c1	69%	–
Nc1nc(NC2CCN(C(=O)COc3ccc(F)cc3)CC2)sc1C(=O)c1c(F)cccc1F	83%	–
CC(=O)C(O)(C(=O)N1CCC(Nc2nc(N)c(C(=O)c3c(F)cccc3F)s2)CC1)c1ccccc1 (stereo not given)	26%	–
CCCSc1ncccc1C(=O)N1CCC(Nc2nc(N)c(C(=O)c3c(F)cccc3F)s2)CC1	44%	–
CCC(C)C(C(=O)N1CCC(Nc2nc(N)c(C(=O)c3c(F)cccc3F)s2)CC1)c1ccccc1 (stereo not given)	49%	–
Cc1c(C(=O)N2CCC(Nc3nc(N)c(C(=O)c4c(F)cccc4F)s3)CC2)oc2ccccc12	38%	–
Nc1nc(NC2CCN(C(=O)c3ccc4[nH]cnc4c3)CC2)sc1C(=O)c1c(F)cccc1F	72%	–
CC(C)CCCC(=O)N1CCC(Nc2nc(N)c(C(=O)c3c(F)cccc3F)s2)CC1	71%	–
CCCN(CCC)[C@@H](C)C(=O)N1CCC(Nc2nc(N)c(C(=O)c3c(F)cccc3F)s2)CC1	6%	–
Nc1nc(NC2CCN(C(=O)[C@@H](O)C3CCCCC3)CC2)sc1C(=O)c1c(F)cccc1F	51%	–
Nc1nc(NC2CCN(C(=O)CNc3ccccc3)CC2)sc1C(=O)c1c(F)cccc1F	57%	–
CSc1ccccc1C(=O)N1CCC(Nc2nc(N)c(C(=O)c3c(F)cccc3F)s2)CC1	40%	–

Compound	inhibition	Ki
CCOC(=O)CC(=O)N1CCC(Nc2nc(N)c(C(=O)c3c(F)cccc3F)s2)CC1	-13%	–
COc1ccc(C(=O)N2CCC(Nc3nc(N)c(C(=O)c4c(F)cccc4F)s3)CC2)cc1OC	-23%	–
COc1ccc(C2(C(=O)N3CCC(Nc4nc(N)c(C(=O)c5c(F)cccc5F)s4)CC3)CC2)cc1	37%	–
Nc1nc(NC2CCN(C(=O)C3(O)CC3)CC2)sc1C(=O)c1c(F)cccc1F	46%	–
COCCOCC(=O)N1CCC(Nc2nc(N)c(C(=O)c3c(F)cccc3F)s2)CC1	73%	–
CC1CC1C(=O)N1CCC(Nc2nc(N)c(C(=O)c3c(F)cccc3F)s2)CC1 (stereo not given)	-10%	–
Nc1nc(NC2CCN(C(=O)[C@@H]3C[C@H]3c3ccccc3)CC2)sc1C(=O)c1c(F)cccc1F	-9%	–
CCOC(=O)CCCC(=O)N1CCC(Nc2nc(N)c(C(=O)c3c(F)cccc3F)s2)CC1	-6%	–
Nc1nc(NC2CCN(C(=O)/C=C/c3ccccc3F)CC2)sc1C(=O)c1c(F)cccc1F	71%	–
COc1ccc(C(O)C(=O)N2CCC(Nc3nc(N)c(C(=O)c4c(F)cccc4F)s3)CC2)cc1 (stereo not given)	58%	–
CCOC(=O)CCC(=O)N1CCC(Nc2nc(N)c(C(=O)c3c(F)cccc3F)s2)CC1	54%	–
Nc1nc(NC2CCN(C(=O)CCOc3ccc(F)cc3)CC2)sc1C(=O)c1c(F)cccc1F	61%	–
CC(=O)CCCC(=O)N1CCC(Nc2nc(N)c(C(=O)c3c(F)cccc3F)s2)CC1	68%	–
CC(=O)Nc1cc(C(=O)N2CCC(Nc3nc(N)c(C(=O)c4c(F)cccc4F)s3)CC2)ccc1C	64%	–
Nc1nc(NC2CCN(C(=O)Cc3ccccc3)CC2)sc1C(=O)c1c(F)cccc1F	66%	–
CS(=O)(=O)CC(=O)N1CCC(Nc2nc(N)c(C(=O)c3c(F)cccc3F)s2)CC1	45%	–
Nc1nc(NC2CCN(C(=O)c3cnnc4ccccc34)CC2)sc1C(=O)c1c(F)cccc1F	28%	–
CN(C(=O)N1CCC(Nc2nc(N)c(C(=O)c3c(F)cccc3F)s2)CC1)c1ccccc1	-7%	–
Nc1nc(NC2CCN(C(=O)/C=C/c3cccs3)CC2)sc1C(=O)c1c(F)cccc1F	43%	–
Nc1nc(NC2CCN(C(=O)c3ccc(C=O)o3)CC2)sc1C(=O)c1c(F)cccc1F	39%	–
CCCCC(=O)N1CCC(Nc2nc(N)c(C(=O)c3c(F)cccc3F)s2)CC1	48%	–
CC(=O)CC(C(=O)N1CCC(Nc2nc(N)c(C(=O)c3c(F)cccc3F)s2)CC1)c1ccccc1 (stereo not given)	17%	–
Cc1ccc2[nH]c(C(=O)N3CCC(Nc4nc(N)c(C(=O)c5c(F)cccc5F)s4)CC3)cc2c1	54%	–

Compound	inhibition	Ki
Nc1nc(NC2CCN(C(=O)CCCN3C(=O)C=CC3=O)CC2)sc1C(=O)c1c(F)cccc1F	43%	–
Cc1ccc(C2(C(=O)N3CCC(Nc4nc(N)c(C(=O)c5c(F)cccc5F)s4)CC3)CC2)cc1	41%	–
CO[C@@H](C(=O)N1CCC(Nc2nc(N)c(C(=O)c3c(F)cccc3F)s2)CC1)c1ccccc1	54%	–
Nc1nc(NC2CCN(S(=O)(=O)CCCn3cncn3)CC2)sc1C(=O)c1c(F)cccc1F	–	4.4 nM
CC(C)CC(O)C(=O)N1CCC(Nc2nc(N)c(C(=O)c3c(F)cccc3F)s2)CC1 (stereo not given)	57%	–
Nc1nc(NC2CCN(C(=O)C3CCc4ccccc4O3)CC2)sc1C(=O)c1c(F)cccc1F (stereo not given)	6%	–
Nc1nc(NC2CCN(C(=O)c3cc(F)cc(F)c3)CC2)sc1C(=O)c1c(F)cccc1F	80%	–
CN(C)c1ccc(/C=C/C(=O)N2CCC(Nc3nc(N)c(C(=O)c4c(F)cccc4F)s3)CC2)cc1	75%	–
CC(=O)OC(C(=O)N1CCC(Nc2nc(N)c(C(=O)c3c(F)cccc3F)s2)CC1)c1ccccc1 (stereo not given)	-5%	–
Nc1nc(NC2CCN(C(=O)c3cc(F)c(F)c(F)c3)CC2)sc1C(=O)c1c(F)cccc1F	65%	–
COC1CCCC(C(=O)N2CCC(Nc3nc(N)c(C(=O)c4c(F)cccc4F)s3)CC2)C1 (stereo not given)	63%	–
CC/C=C\CC(=O)N1CCC(Nc2nc(N)c(C(=O)c3c(F)cccc3F)s2)CC1	85%	–
Nc1nc(NC2CCN(C(=O)COc3cccc(Cl)c3)CC2)sc1C(=O)c1c(F)cccc1F	67%	–
Cc1ccc(C)c(CCCC(=O)N2CCC(Nc3nc(N)c(C(=O)c4c(F)cccc4F)s3)CC2)c1	41%	–
Nc1nc(NC2CCN(C(=O)CCC3CCCCC3=O)CC2)sc1C(=O)c1c(F)cccc1F (stereo not given)	50%	–
Nc1nc(NC2CCN(C(=O)Cc3cccc(O)c3)CC2)sc1C(=O)c1c(F)cccc1F	44%	–
Nc1nc(NC2CCN(C(=O)/C=C/c3ccc(O)cc3)CC2)sc1C(=O)c1c(F)cccc1F	66%	–
C=CCC/C=C/C(=O)N1CCC(Nc2nc(N)c(C(=O)c3c(F)cccc3F)s2)CC1	69%	–
Nc1nc(NC2CCN(C(=O)/C=C/c3ccc(F)cc3F)CC2)sc1C(=O)c1c(F)cccc1F	28%	–
Nc1nc(NC2CCN(C(=O)Cc3cccc(Cl)c3)CC2)sc1C(=O)c1c(F)cccc1F	62%	–
CC(C)[C@@H](O)C(=O)N1CCC(Nc2nc(N)c(C(=O)c3c(F)cccc3F)s2)CC1	34%	–
CC(C(=O)N1CCC(Nc2nc(N)c(C(=O)c3c(F)cccc3F)s2)CC1)c1ccc(Cl)cc1 (stereo not given)	48%	–
CN(CCN)c1ccc(S(=O)(=O)N2CCC(Nc3nc(N)c(C(=O)c4c(F)cccc4F)s3)CC2)cn1	–	4.9 nM

Compound	inhibition	Ki
Cc1ccc(CCC(=O)N2CCC(Nc3nc(N)c(C(=O)c4c(F)cccc4F)s3)CC2)cc1	36%	–
CCc1ccc2[nH]c(C(=O)N3CCC(Nc4nc(N)c(C(=O)c5c(F)cccc5F)s4)CC3)cc2c1	74%	–
CN(C)c1ccc(NC(=O)N2CCC(Nc3nc(N)c(C(=O)c4c(F)cccc4F)s3)CC2)cc1	23%	–
CO[C@H](C(=O)N1CCC(Nc2nc(N)c(C(=O)c3c(F)cccc3F)s2)CC1)c1ccccc1	50%	–
N#C/C(=C\c1ccccc1)C(=O)N1CCC(Nc2nc(N)c(C(=O)c3c(F)cccc3F)s2)CC1	67%	–
CCC(=O)C(=O)N1CCC(Nc2nc(N)c(C(=O)c3c(F)cccc3F)s2)CC1	15%	–
Nc1cccc(CC(=O)N2CCC(Nc3nc(N)c(C(=O)c4c(F)cccc4F)s3)CC2)c1	61%	–
C[C@@H](O)CC(=O)N1CCC(Nc2nc(N)c(C(=O)c3c(F)cccc3F)s2)CC1	72%	–
Nc1nc(NC2CCN(C(=O)CCc3cccc(O)c3)CC2)sc1C(=O)c1c(F)cccc1F	40%	–
C/C=C/CC(=O)N1CCC(Nc2nc(N)c(C(=O)c3c(F)cccc3F)s2)CC1	62%	–
Cc1cc(Cl)ccc1C(=O)N1CCC(Nc2nc(N)c(C(=O)c3c(F)cccc3F)s2)CC1	45%	–
COc1ccc(OC)c(CC(=O)N2CCC(Nc3nc(N)c(C(=O)c4c(F)cccc4F)s3)CC2)c1	57%	–
Nc1nc(NC2CCN(C(=O)C3(c4ccc(Cl)cc4)CC3)CC2)sc1C(=O)c1c(F)cccc1F	-1%	–
CC1CCC(C(=O)N2CCC(Nc3nc(N)c(C(=O)c4c(F)cccc4F)s3)CC2)CC1 (stereo not given)	59%	–
Nc1nc(NC2CCN(C(=O)CCc3ccc(O)cc3)CC2)sc1C(=O)c1c(F)cccc1F	13%	–
Nc1nc(NC2CCN(C(=O)CC3=CCCCC3)CC2)sc1C(=O)c1c(F)cccc1F	51%	–
CCCCCCCC(CC)C(=O)N1CCC(Nc2nc(N)c(C(=O)c3c(F)cccc3F)s2)CC1 (stereo not given)	25%	–
CCOc1ccccc1CC(=O)N1CCC(Nc2nc(N)c(C(=O)c3c(F)cccc3F)s2)CC1	71%	–
Nc1nc(NC2CCN(C(=O)c3cccs3)CC2)sc1C(=O)c1c(F)cccc1F	80%	–
CC(=O)Oc1c(C)cccc1C(=O)N1CCC(Nc2nc(N)c(C(=O)c3c(F)cccc3F)s2)CC1	50%	–
Nc1nc(NC2CCN(C(=O)N3CCCC3)CC2)sc1C(=O)c1c(F)cccc1F	-10%	–
